Measurements published in US9598387B2 (Southern Research Institute, priority 2012, dated 2017).

What was measured:
[1] = target: human D3 dopamine receptor (Homo sapiens (Human), UniProt P35462); assay: Radioligand binding (125I-IABN competition), D3; details: for Ki: 125I-IABN competition, HEK cell membranes expressing human D3; for D2/D3 (D3 selectivity ratio, D2 Ki/D3 Ki): calculated D2 Ki/D3 Ki
Protocol: (§1) The affinities of the target compounds were determined using radioligand binding experiments. […] Competition curves were modeled for a single site. Data from competition dose-response curves were analyzed using Tablecurve program (Jandel). IC50 values were converted to equilibrium dissociation constants (Ki values) using the Cheng and Prusoff correction.

[2] = target: human D2-long dopamine receptor (Homo sapiens (Human), UniProt P14416); assay: Radioligand binding (125I-IABN competition), D2; details: HEK cell membranes expressing human D2-long
Sequence of human D2-long dopamine receptor (P14416 whole entry): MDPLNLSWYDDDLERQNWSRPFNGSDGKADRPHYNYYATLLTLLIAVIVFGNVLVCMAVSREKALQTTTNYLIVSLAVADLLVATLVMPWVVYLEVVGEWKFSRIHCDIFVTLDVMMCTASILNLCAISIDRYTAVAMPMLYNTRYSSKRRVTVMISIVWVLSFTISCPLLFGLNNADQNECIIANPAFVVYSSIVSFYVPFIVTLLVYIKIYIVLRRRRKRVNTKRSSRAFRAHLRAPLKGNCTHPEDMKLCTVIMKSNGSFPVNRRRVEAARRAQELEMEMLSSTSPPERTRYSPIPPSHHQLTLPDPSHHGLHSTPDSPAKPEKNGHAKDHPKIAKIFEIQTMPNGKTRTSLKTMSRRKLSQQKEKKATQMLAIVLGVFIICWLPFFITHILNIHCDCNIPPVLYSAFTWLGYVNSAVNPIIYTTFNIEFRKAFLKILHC
Protocol: as §1

Sequence of human D3 dopamine receptor (P35462 whole entry): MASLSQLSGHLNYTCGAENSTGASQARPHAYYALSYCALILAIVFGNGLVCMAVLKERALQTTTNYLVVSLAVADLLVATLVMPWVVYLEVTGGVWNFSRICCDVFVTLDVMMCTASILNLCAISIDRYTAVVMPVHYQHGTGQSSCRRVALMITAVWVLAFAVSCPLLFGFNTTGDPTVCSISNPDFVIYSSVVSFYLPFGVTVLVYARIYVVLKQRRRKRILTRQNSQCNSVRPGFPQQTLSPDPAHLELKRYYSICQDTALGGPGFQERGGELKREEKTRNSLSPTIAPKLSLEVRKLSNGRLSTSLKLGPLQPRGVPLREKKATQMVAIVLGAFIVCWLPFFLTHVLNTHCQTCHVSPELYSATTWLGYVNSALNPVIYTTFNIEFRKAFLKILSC

SMILES	Ki [1]	D2/D3 (D3 selectivity ratio, D2 Ki/D3 Ki) [1]	Ki [2]
CC(C)(C)c1nc(N2CCN(CCCCNC(=O)N3CCN(c4cccc(Cl)c4Cl)CC3)CC2)cc(C(F)(F)F)n1 [Compound 18, N-(4-(4-(2-(tert-Butyl)-6-(trifluoromethyl)pyrimidin-4-yl)piperazin-1-yl)butyl)-4-(2,3-dichlorophenyl)piperazine-1-carboxamide]	24.6 ± 4.9 nM	31	759 ± 97 nM
COc1cccc(N2CCN(C(=O)NCCCCN3CCN(c4cc(C(F)(F)F)nc(C(C)(C)C)n4)CC3)CC2)c1 [Compound 20, N-(4-(4-(2-(tert-Butyl)-6-(trifluoromethyl)pyrimidin-4-yl)piperazin-1-yl)butyl)-4-(3-methoxyphenyl)piperazine-1-carboxamide]	13 ± 0.7 nM	58	762 ± 159 nM
Cc1cccc(N2CCN(C(=O)NCCCCN3CCN(c4cc(C(F)(F)F)nc(C(C)(C)C)n4)CC3)CC2)c1 [Compound 22, N-(4-(4-(2-(tert-Butyl)-6-(trifluoromethyl)pyrimidin-4-yl)piperazin-1-yl)butyl)-4-(m-tolyl)piperazine-1-carboxamide]	24.7 ± 5.4 nM	38	928 ± 231 nM
CC(C)(C)c1nc(N2CCN(CCCCNC(=O)N3CCN(c4ccccc4C#N)CC3)CC2)cc(C(F)(F)F)n1 [Compound 25, N-(4-(4-(2-(tert-Butyl)-6-(trifluoromethyl)pyrimidin-4-yl)piperazin-1-yl)butyl)-4-(2-cyanophenyl)piperazine-1-carboxamide]	16.6 ± 2.2 nM	23	385 ± 58.5 nM
CC(C)(C)c1nc(N2CCN(CCCCNC(=O)N3CCN(c4ccncc4)CC3)CC2)cc(C(F)(F)F)n1 [Compound 31, N-(4-(4-(2-(tert-Butyl)-6-(trifluoromethyl)pyrimidin-4-yl)piperazin-1-yl)butyl)-4-(pyridin-4-yl)piperazine-1-carboxamide]	2.6 ± 0.3 nM	38	97.4 ± 21.7 nM
CC(C)(C)c1nc(N2CCN(CCCCNC(=O)N3CCN(C4CC4)CC3)CC2)cc(C(F)(F)F)n1 [Compound 35, N-(4-(4-(2-(tert-Butyl)-6-(trifluoromethyl)pyrimidin-4-yl)piperazin-1-yl)butyl)-4-cyclopropylpiperazine-1-carboxamide]	12.8 ± 2.3 nM	26	331 ± 51.9 nM
CC(C)(C)c1nc(N2CCN(CCCCNC(=O)N3CCN(C(=O)c4ccccc4)CC3)CC2)cc(C(F)(F)F)n1 [Compound 37, 4-Benzoyl-N-(4-(4-(2-(tert-butyl)-6-(trifluoromethyl)pyrimidin-4-yl)piperazin-1-yl)butyl)piperazine-1-carboxamide]	29 ± 2.4 nM	34	998 ± 252 nM
CC(C)(C)c1nc(N2CCN(CCCCNC(=O)N3CC(c4ccncc4)C3)CC2)cc(C(F)(F)F)n1 [Compound 38, N-(4-(4-(2-(tert-Butyl)-6-(trifluoromethyl)pyrimidin-4-yl)piperazin-1-yl)butyl)-3-(pyridin-4-yl)azetidine-1-carboxamide]	3.5 ± 0.7 nM	173	605 ± 62 nM
CC(C)(C)c1nc(N2CCN(CCCCNC(=O)N3CCc4ccccc4C3)CC2)cc(C(F)(F)F)n1 [Compound 41, N-(4-(4-(2-(tert-Butyl)-6-(trifluoromethyl)pyrimidin-4-yl)piperazin-1-yl)butyl)-3,4-dihydroisoquinoline-2(1H)-carboxamide]	22.9 ± 5 nM	21	490 ± 70 nM
CC(C)(C)c1nc(N2CCN(CCCCNC(=O)N3CCN(c4ccccc4-c4ccccc4)CC3)CC2)cc(C(F)(F)F)n1 [Compound 43, 4-([1,1′-Biphenyl]-2-yl)-N-(4-(4-(2-(tert-butyl)-6-(trifluoromethyl)pyrimidin-4-yl)piperazin-1-yl)butyl)piperazine-1-carboxamide]	15 ± 3.1 nM	68	1020 ± 75.6 nM
CC(C)(C)c1nc(N2CCN(CCCCNC(=O)N3CCN(c4cccc(-c5ccccc5)c4)CC3)CC2)cc(C(F)(F)F)n1 [Compound 44, 4-([1,1′-Biphenyl]-3-yl)-N-(4-(4-(2-(tert-butyl)-6-(trifluoromethyl)pyrimidin-4-yl)piperazin-1-yl)butyl)piperazine-1-carboxamide]	49.3 ± 11.2 nM	22	1110 ± 104 nM
CC(C)(C)c1nc(N2CCN(CCCCNC(=O)N3CCN(c4ccc(-c5ccccc5)cc4)CC3)CC2)cc(C(F)(F)F)n1 [Compound 45, 4-([1,1′-Biphenyl]-4-yl)-N-(4-(4-(2-(tert-butyl)-6-(trifluoromethyl)pyrimidin-4-yl)piperazin-1-yl)butyl)piperazine-1-carboxamide]	25.1 ± 5.5 nM	25	621 ± 143 nM

Continued by falling Ki [1], values first:

Ki [1]	D2/D3 (D3 selectivity ratio, D2 Ki/D3 Ki) [1]	Ki [2]	SMILES
29.9 ± 5.6 nM	39	1180 ± 265 nM	Cc1cccc(N2CCN(C(=O)NCCCCN3CCN(c4cc(C(F)(F)F)nc(C(C)(C)C)n4)CC3)CC2)c1C [Compound 24, N-(4-(4-(2-(tert-Butyl)-6-(trifluoromethyl)pyrimidin-4-yl)piperazin-1-yl)butyl)-4-(2,3-dimethylphenyl)piperazine-1-carboxamide]
29.6 ± 3.2 nM	35	1050 ± 95.7 nM	CC(C)(C)c1nc(N2CCN(CCCCNC(=O)N3CCN(c4cccc(C(F)(F)F)c4)CC3)CC2)cc(C(F)(F)F)n1 [Compound 27, N-(4-(4-(2-(tert-Butyl)-6-(trifluoromethyl)pyrimidin-4-yl)piperazin-1-yl)butyl)-4-(3-(trifluoromethyl)phenyl)piperazine-1-carboxamide]
25.2 ± 5.5 nM	34	861 ± 137 nM	COc1ccccc1N1CCN(C(=O)NCCCCN2CCN(c3cc(C(F)(F)F)nc(C(C)(C)C)n3)CC2)CC1 [Compound 19, N-(4-(4-(2-(tert-Butyl)-6-(trifluoromethyl)pyrimidin-4-yl)piperazin-1-yl)butyl)-4-(2-methoxyphenyl)piperazine-1-carboxamide]
22.8 ± 4.2 nM	35	802 ± 179 nM	Cc1ccc(N2CCN(C(=O)NCCCCN3CCN(c4cc(C(F)(F)F)nc(C(C)(C)C)n4)CC3)CC2)cc1 [Compound 23, N-(4-(4-(2-(tert-Butyl)-6-(trifluoromethyl)pyrimidin-4-yl)piperazin-1-yl)butyl)-4-(p-tolyl)piperazine-1-carboxamide]
21.2 ± 1.4 nM	42	894 ± 200 nM	CC(C)(C)c1nc(N2CCN(CCCCNC(=O)N3CCC(c4ccc(Cl)cc4)CC3)CC2)cc(C(F)(F)F)n1 [Compound 16, N-(4-(4-(2-(tert-Butyl)-6-(trifluoromethyl)pyrimidin-4-yl)piperazin-1-yl)butyl)-4-(4-chlorophenyl)piperidine-1-carboxamide]
19.4 ± 4.8 nM	22	428 ± 102 nM	CC(C)(C)c1nc(N2CCN(CCCCNC(=O)N3CCN(c4ccc(C(F)(F)F)cc4)CC3)CC2)cc(C(F)(F)F)n1 [Compound 28, N-(4-(4-(2-(tert-Butyl)-6-(trifluoromethyl)pyrimidin-4-yl)piperazin-1-yl)butyl)-4-(4-(trifluoromethyl)phenyl)piperazine-1-carboxamide]
16.7 ± 4.4 nM	32	530 ± 45 nM	CC(C)(C)c1nc(N2CCN(CCCCNC(=O)N3CCN(Cc4ccccc4)CC3)CC2)cc(C(F)(F)F)n1 [Compound 36, 4-Benzyl-N-(4-(4-(2-(tert-butyl)-6-(trifluoromethyl)pyrimidin-4-yl)piperazin-1-yl)butyl)piperazine-1-carboxamide]
16 nM	52	843 ± 95 nM	CC(C)(C)c1nc(N2CCN(CCCCNC(=O)N3CCC(C#N)(c4ccccc4)CC3)CC2)cc(C(F)(F)F)n1 [Compound 17, N-(4-(4-(2-(tert-Butyl)-6-(trifluoromethyl)pyrimidin-4-yl)piperazin-1-yl)butyl)-4-cyano-4-phenylpiperidine-1-carboxamide]
12.7 ± 2.5 nM	41	524 ± 42.2 nM	CC(C)(C)c1nc(N2CCN(CCCCNC(=O)N3CCN(c4ccnc5ccccc45)CC3)CC2)cc(C(F)(F)F)n1 [Compound 34, N-(4-(4-(2-(tert-Butyl)-6-(trifluoromethyl)pyrimidin-4-yl)piperazin-1-yl)butyl)-4-(quinolin-4-yl)piperazine-1-carboxamide]
11.6 ± 0.9 nM	48	557 ± 79.5 nM	COc1ccc(N2CCN(C(=O)NCCCCN3CCN(c4cc(C(F)(F)F)nc(C(C)(C)C)n4)CC3)CC2)cc1 [Compound 21, N-(4-(4-(2-(tert-Butyl)-6-(trifluoromethyl)pyrimidin-4-yl)piperazin-1-yl)butyl)-4-(4-methoxyphenyl)piperazine-1-carboxamide]
8.6 ± 1.8 nM	54	463 ± 55.1 nM	CC(C)(C)c1nc(N2CCN(CCCCNC(=O)N3CCN(c4cnccn4)CC3)CC2)cc(C(F)(F)F)n1 [Compound 33, N-(4-(4-(2-(tert-Butyl)-6-(trifluoromethyl)pyrimidin-4-yl)piperazin-1-yl)butyl)-4-(pyrazin-2-yl)piperazine-1-carboxamide]
2.3 ± 0.3 nM	281	646 ± 1.5 nM	CC(C)(C)c1nc(N2CCN(CCCCNC(=O)N3CCc4ccccc4CC3)CC2)cc(C(F)(F)F)n1 [Compound 42, N-(4-(4-(2-(tert-Butyl)-6-(trifluoromethyl)pyrimidin-4-yl)piperazin-1-yl)butyl)-4,5-dihydro-1H-benzo[d]azepine-3(2H)-carboxamide]
